According to patent publication US10597388B2, “Pyridazinone herbicides” (FMC CORPORATION, priority 2014, dated 2020):

What was measured:
Assay in all cases: Test C greenhouse herbicide test, pre- and postemergence
Format in all cases: in vivo
[1] = tested on: oilseed rape (Brassica napus)
Outline: (§1)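 Visual ratings on a 0 to 100 scale (0 = no effect, 100 = complete control) versus untreated controls, scored 13–15 d after treatment. Soil-applied preemergence to seeded loam/sand; foliar postemergence to 1- to 4-leaf plants (2–18 cm) in peat-vermiculite mix; compounds formulated in solvent plus surfactant.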

[2] = tested on: ryegrass, Italian (Italian ryegrass, Lolium multiflorum)
Outline: as §1

[3] = tested on: velvetleaf (Abutilon theophrasti)
Outline: as §1

[4] = tested on: barnyardgrass (Echinochloa crus-galli)
Outline: as §1

[5] = tested on: foxtail, giant (giant foxtail, Setaria faberii)
Outline: as §1

[6] = tested on: ragweed (common ragweed, Ambrosia elatior)
Outline: as §1

[7] = tested on: wheat (winter wheat, Triticum aestivum)
Outline: as §1

[8] = tested on: blackgrass (Alopecurus myosuroides)
Outline: as §1

[9] = tested on: galium (catchweed bedstraw, Galium aparine)
Outline: as §1

[10] = tested on: pigweed (Amaranthus retroflexus)
Outline: as §1

[11] = tested on: corn (Zea mays)
Outline: as §1

[12] = tested on: soybean (Glycine max)
Outline: as §1

[13] = tested on: lambsquarters (Chenopodium album)
Outline: as §1

[14] = tested on: nutsedge, yellow (yellow nutsedge, Cyperus esculentus)
Outline: as §1

[15] = tested on: crabgrass, large (large crabgrass, Digitaria sanguinalis)
Outline: as §1

[16] = Postemergence, 31 g ai/ha, 0 to 100 scale (0 no effect, 100 complete control)
[17] = Postemergence, 125 g ai/ha, scale 0 to 100, 0 is no effect, 100 is complete control
[18] = Postemergence, 250 g ai/ha, scale 0 to 100, 0 no effect, 100 complete control, 13 to 15 d
[19] = Preemergence, 31 g ai/ha, scale 0 to 100, 0 is no effect, 100 is complete control
[20] = Preemergence, 62 g ai/ha, scale 0 to 100, 0 is no effect, 100 is complete control
[21] = Preemergence, 125 g ai/ha, scale 0 to 100, 0 is no effect, 100 is complete control
[22] = Preemergence, 250 g ai/ha, scale 0 to 100, 0 no effect, 100 complete control
[23] = postemergence, 62 g ai/ha, scale 0 to 100, 0 no effect, 100 complete control

## Cc1cc(C)c2sc(C)c(-c3c(O)c(C)nn(C)c3=O)c2c1 [Compound 2, 5-hydroxy-2,6-dimethyl-4-(2,5,7-trimethylbenzo[b]thien-3-yl)-3(2H)-pyridazinone]
[1]; [16]
  Oilseed Rape plant response rating: 65
[1]; [17]
  Plant response rating, Oilseed Rape: 70
[1]; [18]
  Plant response rating, Oilseed Rape: 75
[1]; [19]
  Plant response rating, Oilseed Rape: 0
[1]; [20]
  Plant response rating, Oilseed Rape: 20
[1]; [21]
  Plant response rating, Oilseed Rape: 65
[1]; [22]
  Oilseed Rape plant response rating: 65
[1]; [23]
  Oilseed Rape plant response rating: 70
[2]; [16]
  Ryegrass, Italian plant response rating: 60
[2]; [17]
  Plant response rating, Ryegrass, Italian: 85
[2]; [18]
  Plant response rating, Ryegrass, Italian: 90
[2]; [19]
  Plant response rating, Ryegrass, Italian: 95
[2]; [20]
  Plant response rating, Ryegrass, Italian: 98
[2]; [21]
  Plant response rating, Ryegrass, Italian: 98
[2]; [22]
  Ryegrass, Italian plant response rating: 98
[2]; [23]
  Ryegrass, Italian plant response rating: 75
[3]; [16]
  Velvetleaf plant response rating: 100
[3]; [17]
  Plant response rating, Velvetleaf: 100
[3]; [18]
  Plant response rating, Velvetleaf: 100
[3]; [20]
  Plant response rating, Velvetleaf: 95
[3]; [21]
  Plant response rating, Velvetleaf: 100
[3]; [22]
  Velvetleaf plant response rating: 100
[3]; [23]
  Velvetleaf plant response rating: 100
[4]; [16]
  Barnyardgrass plant response rating: 10
[4]; [17]
  Plant response rating, Barnyardgrass: 15
[4]; [18]
  Plant response rating, Barnyardgrass: 20
[4]; [19]
  Plant response rating, Barnyardgrass: 35
[4]; [20]
  Plant response rating, Barnyardgrass: 70
[4]; [21]
  Plant response rating, Barnyardgrass: 95
[4]; [22]
  Barnyardgrass plant response rating: 98
[4]; [23]
  Barnyardgrass plant response rating: 10
[5]; [16]
  Foxtail, Giant plant response rating: 20
[5]; [17]
  Plant response rating, Foxtail, Giant: 90
[5]; [18]
  Plant response rating, Foxtail, Giant: 95
[5]; [19]
  Plant response rating, Foxtail, Giant: 80
[5]; [20]
  Plant response rating, Foxtail, Giant: 100
[5]; [21]
  Plant response rating, Foxtail, Giant: 98
[5]; [22]
  Foxtail, Giant plant response rating: 100
[5]; [23]
  Foxtail, Giant plant response rating: 65
[6]; [16]
  Ragweed plant response rating: 80
[6]; [17]
  Plant response rating, Ragweed: 95
[6]; [18]
  Plant response rating, Ragweed: 98
[6]; [19]
  Plant response rating, Ragweed: 65
[6]; [20]
  Plant response rating, Ragweed: 100
[6]; [21]
  Plant response rating, Ragweed: 100
[6]; [22]
  Ragweed plant response rating: 98
[6]; [23]
  Ragweed plant response rating: 80
[7]; [16]
  Wheat plant response rating: 0
[7]; [17]
  Plant response rating, Wheat: 5
[7]; [18]
  Plant response rating, Wheat: 5
[7]; [20]
  Plant response rating, Wheat: 0
[7]; [21]
  Plant response rating, Wheat: 0
[7]; [22]
  Wheat plant response rating: 10
[7]; [23]
  Wheat plant response rating: 0
[8]; [16]
  Blackgrass plant response rating: 45
[8]; [17]
  Plant response rating, Blackgrass: 85
[8]; [18]
  Plant response rating, Blackgrass: 80
[8]; [19]
  Plant response rating, Blackgrass: 85
[8]; [20]
  Plant response rating, Blackgrass: 90
[8]; [21]
  Plant response rating, Blackgrass: 95
[8]; [22]
  Blackgrass plant response rating: 95
[8]; [23]
  Blackgrass plant response rating: 65
[9]; [16]
  Galium plant response rating: 95
[9]; [17]
  Plant response rating, Galium: 98
[9]; [18]
  Plant response rating, Galium: 98
[9]; [19]
  Plant response rating, Galium: 95
[9]; [20]
  Plant response rating, Galium: 100
[9]; [21]
  Plant response rating, Galium: 100
[9]; [22]
  Galium plant response rating: 100
[9]; [23]
  Galium plant response rating: 95
[10]; [16]
  Pigweed plant response rating: 80
[10]; [17]
  Plant response rating, Pigweed: 90
[10]; [18]
  Plant response rating, Pigweed: 98
[10]; [19]
  Plant response rating, Pigweed: 100
[10]; [20]
  Plant response rating, Pigweed: 100
[10]; [21]
  Plant response rating, Pigweed: 100
[10]; [22]
  Pigweed plant response rating: 100
[10]; [23]
  Pigweed plant response rating: 60
[11]; [16]
  Corn plant response rating: 0
[11]; [17]
  Plant response rating, Corn: 5
[11]; [18]
  Plant response rating, Corn: 10
[11]; [19]
  Plant response rating, Corn: 0
[11]; [20]
  Plant response rating, Corn: 0
[11]; [21]
  Plant response rating, Corn: 0
[11]; [22]
  Corn plant response rating: 10
[11]; [23]
  Corn plant response rating: 5
[12]; [16]
  Soybean plant response rating: 0
[12]; [17]
  Plant response rating, Soybean: 50
[12]; [18]
  Plant response rating, Soybean: 5
[12]; [20]
  Plant response rating, Soybean: 0
[12]; [21]
  Plant response rating, Soybean: 0
[12]; [22]
  Soybean plant response rating: 0
[12]; [23]
  Soybean plant response rating: 0
[13]; [16]
  Lambsquarters plant response rating: 85
[13]; [17]
  Plant response rating, Lambsquarters: 98
[13]; [18]
  Plant response rating, Lambsquarters: 100
[13]; [19]
  Plant response rating, Lambsquarters: 100
[13]; [20]
  Plant response rating, Lambsquarters: 100
[13]; [21]
  Plant response rating, Lambsquarters: 100
[13]; [22]
  Lambsquarters plant response rating: 100
[13]; [23]
  Lambsquarters plant response rating: 85
[14]; [16]
  Nutsedge, Yellow plant response rating: 80
[14]; [17]
  Plant response rating, Nutsedge, Yellow: 98
[14]; [18]
  Plant response rating, Nutsedge, Yellow: 98
[14]; [19]
  Plant response rating, Nutsedge, Yellow: 30
[14]; [20]
  Plant response rating, Nutsedge, Yellow: 45
[14]; [21]
  Plant response rating, Nutsedge, Yellow: 70
[14]; [22]
  Nutsedge, Yellow plant response rating: 95
[14]; [23]
  Nutsedge, Yellow plant response rating: 95
[15]; [16]
  Crabgrass, Large plant response rating: 10
[15]; [17]
  Plant response rating, Crabgrass, Large: 15
[15]; [18]
  Plant response rating, Crabgrass, Large: 10
[15]; [19]
  Plant response rating, Crabgrass, Large: 55
[15]; [20]
  Plant response rating, Crabgrass, Large: 55
[15]; [21]
  Plant response rating, Crabgrass, Large: 98
[15]; [22]
  Crabgrass, Large plant response rating: 95
[15]; [23]
  Crabgrass, Large plant response rating: 15

## CC(=O)Oc1c(Cl)nn(C)c(=O)c1-c1c(C)sc2ccc(Cl)cc12 [Compound 116]
[1]; [19]
  Plant response rating, Oilseed Rape: 85
[1]; [20]
  Plant response rating, Oilseed Rape: 80
[1]; [21]
  Plant response rating, Oilseed Rape: 95
[1]; [22]
  Oilseed Rape plant response rating: 100
[2]; [19]
  Plant response rating, Ryegrass, Italian: 5
[2]; [20]
  Plant response rating, Ryegrass, Italian: 30
[2]; [21]
  Plant response rating, Ryegrass, Italian: 70
[2]; [22]
  Ryegrass, Italian plant response rating: 90
[3]; [19]
  Plant response rating, Velvetleaf: 70
[3]; [20]
  Plant response rating, Velvetleaf: 85
[3]; [21]
  Plant response rating, Velvetleaf: 100
[3]; [22]
  Velvetleaf plant response rating: 100
[4]; [19]
  Plant response rating, Barnyardgrass: 5
[4]; [20]
  Plant response rating, Barnyardgrass: 30
[4]; [21]
  Plant response rating, Barnyardgrass: 70
[4]; [22]
  Barnyardgrass plant response rating: 95
[6]; [19]
  Plant response rating, Ragweed: 85
[6]; [20]
  Plant response rating, Ragweed: 90
[6]; [21]
  Plant response rating, Ragweed: 95
[6]; [22]
  Ragweed plant response rating: 100
[7]; [19]
  Plant response rating, Wheat: 0
[7]; [20]
  Plant response rating, Wheat: 0
[7]; [21]
  Plant response rating, Wheat: 5
[7]; [22]
  Wheat plant response rating: 15
[8]; [19]
  Plant response rating, Blackgrass: 0
[8]; [20]
  Plant response rating, Blackgrass: 5
[8]; [21]
  Plant response rating, Blackgrass: 30
[8]; [22]
  Blackgrass plant response rating: 35
[9]; [19]
  Plant response rating, Galium: 60
[9]; [20]
  Plant response rating, Galium: 85
[9]; [21]
  Plant response rating, Galium: 100
[9]; [22]
  Galium plant response rating: 100
[10]; [19]
  Plant response rating, Pigweed: 95
[10]; [20]
  Plant response rating, Pigweed: 100
[10]; [21]
  Plant response rating, Pigweed: 100
[10]; [22]
  Pigweed plant response rating: 100
[11]; [19]
  Plant response rating, Corn: 0
[11]; [20]
  Plant response rating, Corn: 0
[11]; [21]
  Plant response rating, Corn: 60
[11]; [22]
  Corn plant response rating: 25
[12]; [20]
  Plant response rating, Soybean: 0
[12]; [21]
  Plant response rating, Soybean: 0
[12]; [22]
  Soybean plant response rating: 5
[13]; [19]
  Plant response rating, Lambsquarters: 65
[13]; [20]
  Plant response rating, Lambsquarters: 98
[13]; [21]
  Plant response rating, Lambsquarters: 90
[13]; [22]
  Lambsquarters plant response rating: 95
[14]; [19]
  Plant response rating, Nutsedge, Yellow: 0
[14]; [20]
  Plant response rating, Nutsedge, Yellow: 35
[14]; [21]
  Plant response rating, Nutsedge, Yellow: 85
[14]; [22]
  Nutsedge, Yellow plant response rating: 95
[15]; [19]
  Plant response rating, Crabgrass, Large: 0
[15]; [20]
  Plant response rating, Crabgrass, Large: 20
[15]; [21]
  Plant response rating, Crabgrass, Large: 50
[15]; [22]
  Crabgrass, Large plant response rating: 90
